Reference: patent US8916612B2, “Agmatine containing dietary supplements, nutraceuticals, and foods” (priority 2008, dated 2014)
Several values for one entry are separate records, joined by “and”; a condition that tells them apart may be missing. Equal entries are not always repeated.

Columns and labels:
[1] = system: humans; assay: Open label dose-escalating safety and tolerability study of dietary agmatine sulfate capsules (Example I); assay type: in vivo, human; settings: for Adverse Effects (no. of participants): Nausea and Diarrhea: 12 participants
Procedure: This study is based on administration to humans weighing 60 to 70 kg.
Agmatine sulfate was manufactured according to international standards ISO 9001. It was encapsulated under cGMP (current Good Manufacturing Practice) conditions in gelatin-glycerin capsules as the sole active ingredient of the dietary supplement and the capsules packaged in properly labeled plastic container bottles.
The study was performed at Tel-Aviv Sourasky Medical Center, Israel and approved by the Institutional Review Board (Trial Number: 05-302) and by the Israel Ministry of Health National Review Board (Trial Number: 20050479), and conducted in accordance with the Helsinki guidelines under current Good Clinical Practice (cGCP) and the International Conference on Harmonization (ICH) guidelines. All procedures were performed after participants had read, understood and signed the informed consent form. Eligibility of consenting participants was determined after medical history recording, comprehensive clinical examination, and laboratory tests of blood samples to ensure inclusion/exclusion criteria.
Inclusion Criteria: 1) Men and women 18-75 years of age, including also those diagnosed with spine skeletal pathologies causing nerve compression. 2) Women must be non-pregnant, non-lactating, or sterilized, or postmenopausal. 3) All participants must give a signed informed consent.
Exclusion Criteria: 1) Those with any significant clinical, medical or surgical condition, such as: cardiovascular, pulmonary, hepatic, renal, immune, endocrine, metabolic, digestive, malignancy, or allergic, and those with deviations from the normal laboratory test values. 2) Those with any neuromuscular diseases (other than spine skeletal pathologies causing nerve compression). 3) Those with any neurological diseases. 4) Those with any history of alcohol or substance abuse within the last 2 years. 5) Those with gastric ulcer history. 6) Those who took any experimental drug within 90 days prior to screening. 7) Women who are pregnant or breast feeding. 8) Those participating in other clinical trials.
At the starting day of the study eligible participants began taking the supplement and had the option of receiving concomitantly any conventional treatment [e.g. drug treatment or physiotherapy] as needed for their welfare, and this was recorded throughout the duration of the study. However, any other experimental drug or dietary supplement was disallowed.
Table 1 details the escalating doses and regimens taken by the consecutive cohorts. Following screening to ensure inclusion/exclusion criteria, 48 men and women, 28 to 70 years old were recruited consecutively to the study after they gave a signed informed consent. Eligible participants took 3 times a day, after meals (morning, noontime and evening), the specified daily dose of agmatine sulfate capsules. Each capsule contained 445 mg of agmatine sulfate (Table 1).
Before beginning and within 5 days after termination—and before the next cohort began taking the supplement—all cohort participants underwent thorough clinical evaluation and routine laboratory tests of blood samples to ascertain normal function of the cardiovascular, hepatic, renal, immune and metabolic systems.
In-person evaluations were performed at: 11-15 days, 22-25 days, 40-45 days after treatment starting day (day 1), and then telephone interview evaluations every 3-6 months for the duration of the trial. The flow chart (2) outlined in FIG. 2 illustrates the treatment and follow-up schedules as exemplified for a 10-day cohort. In addition, participants received a “participant diary” for self recording of any outstanding health related events during the treatment interval.
For the sake of privacy, all records and data were identified only by participants' code number. All “source data” documents were stored in individual patient files and kept at the clinical center by the principal investigator and copies are kept with the study sponsor. […]

[2] = system: participants with lumbar disc-associated radiculopathy; assay: Randomized, double-blind, placebo-controlled trial in lumbar disc-associated radiculopathy; assay type: in vivo, human; settings: 2.670 g/day for 14 days
From the text: This recommendation is supported by recent clinical trials (Keynan O, Mirovsky Y, Dekel S, Gilad V H, Gilad G M. Safety and efficacy of dietary agmatine sulfate in lumbar disc-associated radiculopathy. An open label, dose-escalating study followed by a randomized, double-blind, placebo-controlled trial. Pain Med, (2010) in press). […] In the randomized, double-blind, placebo-controlled (RCT) trial, eligible participants received either placebo or agmatine sulfate (2.670 g/day for 14 days) in a double-blind fashion. Analysis was performed on 30 participants in the placebo and 31 in the agmatine sulfate arm. […] Secondary outcomes included assessments of safety and tolerability. […] While the severity of pain symptoms and general health status improved with time in both placebo and agmatine sulfate-treated groups, the improvements were more pronounced in the agmatine sulfate-treated group. […] Importantly, none of the participants reported worsening in their general health status.
Results, mean (±SEM, vertical lines) values are expressed as percent of baseline values. Asterisks indicate significant differences between the placebo- and agmatine sulfate-treated groups (p 0.033).

[3] = system: male Wistar rats; assay: Sub-chronic intake of high dose agmatine sulfate in the drinking water (Example II); assay type: in vivo, rat; settings: for Blood Pressure (mmHg), systolic, mean / Daily Drinking (ml), mean / Body Weight (g), mean: group mean; for Body Weight / Blood Pressure (mmHg), systolic / Daily Drinking: individual animal, sulfate
Procedure: The experiment was performed at Assaf Harofeh Medical Center, Israel, according to the Institutional Animal Care and Use Committee approved protocol. Three-month-old male Wistar rats (Harlan, Israel) weighing 250±20 g were caged individually under standard vivarium conditions of temperature (22±2° C.), humidity (55-75%) and light (12 h light-dark cycle) with a free supply of food and water. Experimental animals (n=10) drank sterile water containing agmatine sulfate 5.3 g/l, while controls (n=10) drank regular sterile drinking-water for 95 days. Drinking-water containing agmatine sulfate have bitter taste.
Animal body weight and systolic blood pressure (SBP) as measured by tail-cuff plethysmography (IITC Life Science, Woodland Hills, Calif.) were measured at the starting day of the experiment (day 1) and at various intervals thereafter. General behavior, fur appearance and feces appearance were also assessed. Water consumption was measured daily. After 95 days, 5 animals of each group were deeply anesthetized ([…] sodium pentobarbital, intraperitoneal) and the stomach, kidney, heart and liver removed for gross inspection. The stomach was inspected for appearance of ulcers. The rest of the animals, in both the control and experimental groups, were all maintained on regular diet (without agmatine sulfate in the drinking-water) for additional 20 days and then killed (on the 115th day). Results were evaluated by analysis of variance (ANOVA) procedure. Differences were analyzed by 2-tailed t-test and values of p≦0.05 were considered statistical significant. For data normalization, differences were expressed as percent change of day 1 values.

[4] = system: facial nerve crush in male Wistar rats; assay: Vibrissae functional recovery after facial nerve crush following prior agmatine sulfate intake (Example III); assay type: in vivo, rat
Procedure: The experiment was performed at Assaf Harofeh Medical Center, Israel, with 4-month-old male Wistar rats (Harlan, Israel) kept under standard conditions in the Institute's vivarium according to the Institutional Animal Care and Use Committee approved protocols (see Example II above). […] rats were divided into 2 groups of 14 animals each, one group drank sterile water containing agmatine sulfate 5.3 g/l, while the other drank regular sterile drinking-water for a period of 21 days. On day 21 both groups were switched to drink regular tap water. In 7 rats from each group the facial nerve was crushed unilaterally while the other 7 were left unoperated. Surgery was performed under halothane anesthesia (1.5% in 100% 02) and the facial nerve was crushed unilaterally at the stylomastoid foramen for 20 seconds with a jeweler's forceps under the operating microscope.
Transection of the facial nerve, which innervates the upper and lower lips results in paralysis of the vibrissae (whiskers) on the operated side. Functional recovery was assessed by evaluation of vibrissae movement for up to 14 days postoperatively using the following arbitrary scale of 0 to 4:0, complete paralysis with vibrissae flattened backwardly; —1, slight vibrating motion; —2, mild proximal vibrating motion; —3 moderate motion of vibrissae and lips; 4, full motion of lower face and vibrissae. Results were evaluated by analysis of variance (ANOVA) procedure followed by Bonferroni post hoc testing and differences considered significant at p<0.05.
B. sterile water containing agmatine and unoperated (controls, semisolid circle). C. Regular sterile drinking-water and nerve crush (solid square). D. sterile water containing agmatine and nerve crush (solid triangle). Results are the mean (±SEM, vertical lines) values of 7 animals. *=p<0.001 comparing group C to group D values.

[5] = system: humans; assay: Open label dose-escalating safety and tolerability study of dietary agmatine sulfate capsules (Example I); assay type: in vivo, human; settings: oral doses of up to 2.67 g/day for over 2 years
[6] = 4th Cohort, 3.560 g/day for 21 days
[7] = Day 115 (20 days after treatment)

## N=C(N)NCCCCN.O=S(=O)(O)O [agmatine sulfate]
[1]; 3rd Cohort, 3.560 g/day for 10 days
  Adverse Effects (no. of participants): Nausea and Diarrhea: 1
[1]; 3.560 g/day
  Onset of diarrhea and nausea during treatment: 2 to 3 days
  Time to disappearance of diarrhea and nausea after treatment cessation: ≤ 2 days
[1]; [6]
  Discontinuations - Due to Adverse Effects (no. of participants): 1
  Free Will Discontinuations (no. of participants): 1
  Adverse Effects (no. of participants): Nausea and Diarrhea: 2
[1]; all 48 participants, 1.335-3.560 g/day
  Clinical examinations and laboratory analyses of blood samples: no abnormality in any parameter studied
[1]; of 48 participants
  Number of participants who failed to complete the study: 2
[1]; of 48 participants, all at 3.560 g/day
  Number of participants reporting mild-to-moderate side effects (diarrhea and nausea): 3
[1]; oral doses of up to 3.56 g/day
  Adverse effects: only mild, reversible diarrhea was observed
[2]; 31 participants
  Adverse effects during the trial: no adverse effects were noted
[2]; follow-up 15-20 day, p=0.013
  Improvement in general health status, SF-36 Total Score, compared to placebo: statistically significant enhanced improvements
[2]; follow-up 15-20 day, p=0.033
  Improvement in pain measures (Visual Analogue Scale) compared to placebo: statistically significant enhanced improvements
[3]; 95 days treatment
  General cage behavior, fur appearance and feces appearance: all normal
[3]; Day 1
  Blood Pressure (% Change), percent of day 1: (100) %
  Body Weight (% Change), percent of day 1: (100) %
  Daily Drinking (% Change), percent of day 1: (100) %
  Blood Pressure (mmHg), systolic, mean: 106.4 mmHg
  Daily Drinking (ml), mean: 34.8 mL
  Daily Drinking: 35.5 ml and 34.8 ml and 35.6 ml (2×) and 34.7 ml and 33.4 ml and 35.0 ml (2×) and 33.8 ml and 34.5 ml
[3]; Day 21
  Blood Pressure (% Change), percent of day 1: (97.3) %
  Body Weight (% Change), percent of day 1: (97.6) %
  Daily Drinking (% Change), percent of day 1: (72.1) %
  Blood Pressure (mmHg), systolic: 97.0 mmHg and 95.0 mmHg and 100.0 mmHg (2×) and 109.0 mmHg and 115.0 mmHg and 103.0 mmHg (2×) and 107.0 mmHg and 106.0 mmHg
  Daily Drinking: 21.4 mL and 25.3 mL and 25.1 mL and 25.0 mL and 24.1 mL and 25.5 mL and 26.4 mL and 24.9 mL and 27.0 mL and 26.7 mL
[3]; Day 95
  Blood Pressure (% Change), percent of day 1: (96.9) %
  Body Weight (% Change), percent of day 1: (102.2) %
  Daily Drinking (% Change), percent of day 1: (83.9) %
  Blood Pressure (mmHg), systolic: 95.0 mmHg and 97.0 mmHg and 101.0 mmHg (2×) and 110.0 mmHg and 112.0 mmHg and 105.0 mmHg (2×) and 106.0 mmHg and 99.0 mmHg
  Daily Drinking: 25.6 ml and 28.7 ml and 30.0 ml (2×) and 27.7 ml and 29.6 ml and 30.3 ml and 28.4 ml and 31.3 ml and 30.6 ml
[3]; Day 115
  Blood Pressure (% Change), percent of day 1: (99.1) %
  Body Weight (% Change), percent of day 1: (103.9) %
  Daily Drinking (% Change), percent of day 1: (99.7) %
[3]; after 95 days of treatment
  Weight gain after switch to regular drinking water: recovery in weight gain within 20 days
[3]; during treatment
  Weight gain: reduced weight gain with actual weight loss during the first 3 weeks of treatment
[3]; during treatment, 5.3 g/l in drinking water
  Volume of water intake: reduction in volume of water intake
[3]; during treatment, recovered 20 days after cessation
  Systolic blood pressure: slight, but significant reduction
[3]; Day 1, n=10
  Body Weight (g), mean: 253.4 g
[3]; Day 21, p<0.05 vs day 1
  Blood Pressure (mmHg), systolic, mean: 103.5 ± mmHg
  Body Weight (g), mean: 247.3 ± g
  Daily Drinking (ml), mean: 25.1 ± ml
[3]; Day 95, p<0.05 vs day 1
  Blood Pressure (mmHg), systolic, mean: 103.1 ± mmHg
  Body Weight (g), mean: 258.9 ± g
  Daily Drinking (ml), mean: 29.2 ± ml
[3]; Day 115 (20 days after treatment), n=5, p<0.05 vs day 1
  Body Weight (g), mean: 261.4 ± g
[3]; Day 115, n=5
  Blood Pressure (mmHg), systolic, mean: 105.8 mmHg
  Daily Drinking (ml), mean: 34.9 mL
[3]; Day 1 (beginning), 5.3 g/l in drinking water
  Body Weight: 250 g (2×) and 265 g and 255 g and 257 g and 247 g and 245 g and 252 g and 260 g and 253 g
[3]; Day 1, tail-cuff
  Blood Pressure (mmHg), systolic: 99.0 mmHg and 100.0 mmHg and 105.0 mmHg (2×) and 112.0 mmHg and 115.0 mmHg and 110.0 mmHg and 109.0 mmHg and 102.0 mmHg and 107.0 mmHg
[3]; Day 21 of treatment
  Body Weight: 255 g (2×) and 245 g (3×) and 260 g and 227 g and 242 g and 250 g and 249 g
[3]; Day 95 of treatment
  Body Weight: 265 g and 257 g (2×) and 273 g and 253 g and 251 g and 255 g (2×) and 263 g and 260 g
[3]; [7]
  Blood Pressure (mmHg), systolic: 108.0 mmHg and 107.0 mmHg (2×) and 104.0 mmHg and 103.0 mmHg
  Body Weight: 256 g and 261 g and 259 g and 267 g and 264 g
  Daily Drinking: 34.5 mL and 35.3 mL and 34.9 mL and 35.0 mL and 34.8 mL
[3]; inspection after 95 days
  Stomach ulcers: no stomach ulcers were observed
[3]; over the 95 day treatment period
  Average daily water consumption: 27.15 mL
[3]; stomach, kidney, heart, liver
  Inspection of main internal organs: did not reveal any gross changes
[4]; controls: day 14
  Day after injury at which nearly full recovery of vibrissae movement is achieved: 12 days
[4]; day 10 after injury, 5.3 g/l in drinking water for 21 days before crush
  Increase in vibrissae motion as compared to controls (group C): 181.2%
[4]; group D vs group C, p<0.001
  Recovery of vibrissae movement: significantly accelerated recovery of vibrissae movement
[5]
  Adverse effects: have not been associated with any adverse effects
